From ChEMBL document CHEMBL3593188, “Exploring the size adaptability of the B ring binding zone of the colchicine site of tubulin with para-nitrogen substituted isocombretastatins” (Eur J Med Chem, 2015)
≈ marks a conversion by molar mass, not a printed value. Calls of active or inactive are those of the source. No cut-off for these calls is given here.

How the values were obtained:
[1] = Inhibition of calf brain tubulin polymerization after 20 mins by spectrophotometric analysis; set-up: species or system Bos taurus
HT-29 [2] = assay: Cytotoxicity against human HT-29 cells assessed as inhibition of cell proliferation after 72 hrs by XTT assay; format: functional, cell-based; conditions: HT-29, 72 h
HeLa = assay: Cytotoxicity against human HeLa cells assessed as inhibition of cell proliferation after 72 hrs by XTT assay; format: functional, cell-based
HL-60 = assay: Cytotoxicity against human HL60 cells assessed as inhibition of cell proliferation after 72 hrs by XTT assay; format: functional, cell-based; conditions: HL-60, 72 h
[3] = Aqueous solubility of the compound in phosphate buffer at pH 7 after 48 hrs by spectrophotometric analysis; format: physicochemical
HT-29 [4] = assay: Cell cycle arrest in human HT-29 cells assessed as accumulation at G2/M phase at 100 nM after 24 hrs by propidium iodide staining-based flow cytometric analysis; format: functional
HT-29 [5] = assay: Inhibition of autophagy in human HT-29 cells assessed as absence of faster migrating LC3-II band decay at 35 nM after 24 to 72 hrs by Western blot analysis; format: functional, cell-based
HCT-116 = assay: Induction of microtubule disruption in human HCT116 cells at 50 nM after 24 hrs by DAPI staining-based confocal microscopic analysis; format: cell-based
HT-29 [6] = assay: Inhibition of autophagy in human HT-29 cells assessed as accumulation of slower migrating LC3-I band at 35 nM after 24 to 72 hrs by Western blot analysis; format: functional, cell-based
HT-29 [7] = assay: Cell cycle arrest in human HT-29 cells assessed as accumulation at G2/M phase at 50 nM after 24 hrs by propidium iodide staining-based flow cytometric analysis; format: functional

Structure (SMILES)	IC50 [1]	IC50 (HT-29 [2])	IC50 (HeLa)	IC50 (HL-60)	solubility at 48 h [3]	Activity (HT-29 [4])	inhibition (HT-29 [5])	Activity (HCT-116)	inhibition (HT-29 [6])	Activity (HT-29 [7])
COc1cc(C(=O)c2ccc(N(C)C)c(N)c2)cc(OC)c1OC	> 5000 nM	900 nM	600 nM	700 nM						
C=C(c1ccc(N(C)C)c(C=NO)c1)c1cc(OC)c(OC)c(OC)c1	> 5000 nM	> 1000 nM	900 nM	1000 nM	123 µg/mL (≈ 345 µM)					
COc1ccc(/C=C\c2cc(OC)c(OC)c(OC)c2)cc1O [COMBRETASTATIN A4]	3000 nM	30 nM								
C=C(c1ccc(N2CCCC2)cc1)c1cc(OC)c(OC)c(OC)c1	1100 nM	600 nM	200 nM	400 nM	1.3 µg/mL (≈ 3.83 µM)	Active				
C=C(c1ccc(N(C)C)c(N)c1)c1cc(OC)c(OC)c(OC)c1	> 5000 nM	600 nM	500 nM	400 nM						
COc1cc(/C(=N/O)c2ccc(N(C)C)cc2)cc(OC)c1OC	> 10000 nM	10000 nM	800 nM	600 nM	74 µg/mL (≈ 224 µM)					
CCn1c2ccccc2c2cc(/C(=N/O)c3cc(OC)c(OC)c(OC)c3)ccc21	1600 nM	300 nM	100 nM	100 nM	4.2 µg/mL (≈ 10.4 µM)	inactive				
COc1cc(C(=O)c2ccc(N(C)C)cc2)cc(OC)c1OC	> 20000 nM	400 nM	90 nM	200 nM						
C/C=C(/c1cc(OC)c(OC)c(OC)c1)c1ccc2c(c1)c1ccccc1n2CC	1500 nM	560 nM	700 nM	400 nM	1.8 µg/mL (≈ 4.48 µM)	inactive				
C=C(c1ccc(N(C)C)c(C=O)c1)c1cc(OC)c(OC)c(OC)c1	> 10000 nM	> 1000 nM	800 nM	900 nM	107 µg/mL (≈ 313 µM)					
C=C(c1ccc(N(C)C)c(C#N)c1)c1cc(OC)c(OC)c(OC)c1	> 5000 nM	960 nM	400 nM	800 nM	84 µg/mL (≈ 248 µM)					
COc1cc(/C(=N/O)c2ccc(N3CCCC3)cc2)cc(OC)c1OC	> 5000 nM	> 1000 nM	600 nM	400 nM	13.7 µg/mL (≈ 38.4 µM)					
C=C(c1cc(OC)c(OC)c(OC)c1)c1ccc2c(c1)c1ccccc1n2CC	900 nM	200 nM	80 nM	90 nM	2.5 µg/mL (≈ 6.45 µM)	Active				
C=C(c1cc(OC)c(OC)c(OC)c1)c1ccc(N(C)C)c(C2OCCO2)c1	> 5000 nM	> 1000 nM	600 nM	800 nM	11 µg/mL (≈ 28.5 µM)					
COc1cc(C(=O)c2ccc(N(C)C)c(C=O)c2)cc(OC)c1OC	> 20000 nM	> 1000 nM	> 1000 nM	> 1000 nM	8.9 µg/mL (≈ 25.9 µM)					
C=C(c1ccc(N(C)C)cc1)c1cc(OC)c(OC)c(OC)c1	1900 nM	70 nM	40 nM	10 nM	30 µg/mL (≈ 95.7 µM)		Active	Active	Active	>85%
CCn1c2ccccc2c2cc(C(=O)c3cc(OC)c(OC)c(OC)c3)ccc21	1600 nM	400 nM	700 nM	700 nM	2 µg/mL (≈ 5.14 µM)	inactive				
COc1cc(C(=O)c2ccc(N(C)C)c([N+](=O)[O-])c2)cc(OC)c1OC	> 20000 nM	> 1000 nM	> 1000 nM	> 1000 nM	3.7 µg/mL (≈ 10.3 µM)					
COc1cc(C(=O)c2ccc(N3CCCC3)cc2)cc(OC)c1OC	> 5000 nM	> 1000 nM	800 nM	800 nM	2.6 µg/mL (≈ 7.62 µM)					
